From patent publication US9790218B2, “Small molecule activators of calcium-activated chloride channels and methods of use” (The Regents of the University of California, priority 2011, dated 2017)

Legend:
CFTR = target: T1, CFTR (Homo sapiens, UniProt P13569); test: CFTR conductance in FRT cells expressing wild type CFTR and YFP indicator; format: cell-based; conditions: 10 μM, 5 min pretreatment; forskolin 10 μM
T1 construct: expressed in transfected cells; host or cells: FRT cells co-expressing a YFP halide indicator
T1 sequence (P13569 whole entry): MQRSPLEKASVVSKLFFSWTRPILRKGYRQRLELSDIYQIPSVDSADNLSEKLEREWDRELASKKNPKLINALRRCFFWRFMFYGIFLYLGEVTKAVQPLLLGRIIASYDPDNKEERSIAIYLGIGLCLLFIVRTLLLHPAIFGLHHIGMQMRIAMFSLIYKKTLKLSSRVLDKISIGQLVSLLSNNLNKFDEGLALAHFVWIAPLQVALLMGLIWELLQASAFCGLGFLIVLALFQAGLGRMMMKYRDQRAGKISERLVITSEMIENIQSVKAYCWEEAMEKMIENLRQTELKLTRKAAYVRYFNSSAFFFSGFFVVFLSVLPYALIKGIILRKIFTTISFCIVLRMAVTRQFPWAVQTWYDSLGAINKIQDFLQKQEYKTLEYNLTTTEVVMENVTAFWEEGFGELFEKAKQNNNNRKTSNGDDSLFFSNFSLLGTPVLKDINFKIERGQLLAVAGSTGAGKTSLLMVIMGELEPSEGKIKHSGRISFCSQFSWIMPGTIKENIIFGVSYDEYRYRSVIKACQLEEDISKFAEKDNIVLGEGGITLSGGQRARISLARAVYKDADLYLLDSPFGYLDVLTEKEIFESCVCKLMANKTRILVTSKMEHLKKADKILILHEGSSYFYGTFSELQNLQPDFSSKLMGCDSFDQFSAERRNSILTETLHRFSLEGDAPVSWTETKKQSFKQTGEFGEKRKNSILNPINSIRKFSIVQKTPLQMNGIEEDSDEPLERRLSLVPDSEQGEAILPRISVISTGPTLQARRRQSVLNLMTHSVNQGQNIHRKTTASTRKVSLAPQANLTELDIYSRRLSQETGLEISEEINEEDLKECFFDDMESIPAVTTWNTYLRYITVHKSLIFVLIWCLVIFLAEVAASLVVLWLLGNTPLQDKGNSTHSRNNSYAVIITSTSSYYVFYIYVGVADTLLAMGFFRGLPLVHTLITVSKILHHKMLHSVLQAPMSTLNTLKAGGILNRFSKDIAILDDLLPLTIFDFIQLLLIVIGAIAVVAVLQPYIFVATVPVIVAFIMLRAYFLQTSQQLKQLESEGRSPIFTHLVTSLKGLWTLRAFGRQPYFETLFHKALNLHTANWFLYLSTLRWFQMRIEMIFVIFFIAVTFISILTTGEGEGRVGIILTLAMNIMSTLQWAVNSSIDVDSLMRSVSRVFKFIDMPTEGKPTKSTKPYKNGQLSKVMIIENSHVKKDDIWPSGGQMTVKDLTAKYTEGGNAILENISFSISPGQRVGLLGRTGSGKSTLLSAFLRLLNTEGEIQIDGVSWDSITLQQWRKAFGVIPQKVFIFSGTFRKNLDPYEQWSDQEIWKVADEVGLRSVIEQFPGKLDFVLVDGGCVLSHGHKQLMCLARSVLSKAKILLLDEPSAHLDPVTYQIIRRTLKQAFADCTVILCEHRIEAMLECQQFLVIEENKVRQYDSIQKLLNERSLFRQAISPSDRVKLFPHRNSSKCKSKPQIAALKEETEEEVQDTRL
Protocol: FIG. 2A-E. Characterization of TMEM16A activators. FIG. 2A. Cytoplasmic calcium measured by Fluo-4 fluorescence. 100 μM ATP (gray line) or 10 μM of indicated TMEM16A activators were added at the arrow. FIG. 2B. Apical membrane current measured in TMEM16A-expressing FRT cells in the presence of a transepithelial chloride gradient and after basolateral membrane permeabilization. […] T16Ainh-A01 (10 μM) added where indicated. […] (right) Concentration-activation data summary (mean±S.E., n=4-6). FIG. 2C. Synergistic effect of Eact and Fact. (left and center) Representative current traces showing synergy. (right) Data summary of low doses of TMEM16A activation (mean±S.E., n=5, * P<0.05). FIG. 2D. Apical membrane current measured in FRT cells transfected with mouse TMEM16A or TMEM16B. FIG. 2E. Effect of Eact and Fact on CFTR and ENaC. (left) FRT cells expressing wild type CFTR and YFP indicator were pretreated for 5 min with 10 μM Eact and Fact. Forskolin (10 μM) added as indicated. (right) HBE cells were pre-treated for 5 min with 10 μM Eact and Fact, with amiloride (10 μM) added as indicated.

TMEM16A = target: T2, TMEM16A (Homo sapiens, UniProt Q5XXA6, DEL476-501); test: Fluorescence plate reader assay of TMEM16A-mediated I^− influx (YFP halide sensor); format: cell-based
T2 construct: expressed in transfected cells
T2 sequence (Q5XXA6 with tags, fused parts or gaps isoform Q5XXA6-5 DEL539-564): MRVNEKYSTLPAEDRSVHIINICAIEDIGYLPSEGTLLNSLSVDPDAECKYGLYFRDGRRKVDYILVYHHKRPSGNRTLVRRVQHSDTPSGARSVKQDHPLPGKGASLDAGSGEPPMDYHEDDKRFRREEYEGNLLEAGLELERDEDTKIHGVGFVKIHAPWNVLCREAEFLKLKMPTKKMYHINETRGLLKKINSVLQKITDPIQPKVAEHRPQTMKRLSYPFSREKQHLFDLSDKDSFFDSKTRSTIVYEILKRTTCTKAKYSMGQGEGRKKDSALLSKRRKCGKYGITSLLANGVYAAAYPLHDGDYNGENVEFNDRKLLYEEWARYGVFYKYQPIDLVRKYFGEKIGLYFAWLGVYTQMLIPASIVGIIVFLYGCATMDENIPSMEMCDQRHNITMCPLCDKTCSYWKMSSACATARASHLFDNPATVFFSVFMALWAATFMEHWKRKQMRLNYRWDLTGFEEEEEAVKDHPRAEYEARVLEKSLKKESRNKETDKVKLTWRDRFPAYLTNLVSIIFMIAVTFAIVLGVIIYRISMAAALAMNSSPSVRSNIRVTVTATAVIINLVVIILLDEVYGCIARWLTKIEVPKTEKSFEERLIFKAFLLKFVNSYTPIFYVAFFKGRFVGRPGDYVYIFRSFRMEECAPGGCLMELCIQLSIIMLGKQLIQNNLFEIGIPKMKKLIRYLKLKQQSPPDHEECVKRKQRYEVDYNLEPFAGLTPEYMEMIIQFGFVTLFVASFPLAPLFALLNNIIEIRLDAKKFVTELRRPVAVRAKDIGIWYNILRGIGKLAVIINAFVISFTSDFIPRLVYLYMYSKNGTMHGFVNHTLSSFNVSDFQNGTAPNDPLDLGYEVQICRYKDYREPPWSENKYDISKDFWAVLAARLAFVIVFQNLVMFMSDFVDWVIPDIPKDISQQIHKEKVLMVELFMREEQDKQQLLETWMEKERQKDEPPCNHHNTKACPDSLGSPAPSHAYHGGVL
Protocol: FRT cells were stably transfected with human TMEM16A (TMEM16A(abc), cDNA provided by Dr. Luis Galietta, Gaslini Institute, Genoa, Italy) and the halide sensor YFP-H148Q/1152L/F46L. Cells were plated in 96-well black-walled microplates (Corning Inc., Corning, N.Y.) at a density of 20,000 cells per well in Coon's modified F12 medium supplemented with 5% fetal calf serum, 2 mM L-glutamine, 100 U/mL penicillin and 100 μg/mL streptomycin. The human submandibular cell line A253 (ATCC HTB 41) was cultured in complete McCoy's 5A medium supplemented with 10% fetal bovine serum, 100 U/mL penicillin and 100 μg/mL streptomycin.
TMEM16A activators were identified from screening of ˜110,000 synthetic drug-like compounds, purified natural products and approved/investigational drugs. The cell-based screen employs FRT cells coexpressing human TMEM16A and the I^−-sensing yellow fluorescent protein YFP-H148Q/1152L/F46L. FRT cells were chosen because of their low basal I^− and Cl^− transport, rapid growth on uncoated plastic, strong stable expression of transfected proteins, and formation of tight junctions for measurements of transepithelial short-circuit current (Ma et al., supra).
High-throughput screening was done using an automated screening platform (Beckman) equipped with FluoStar fluorescence plate readers (BMG Lab Technologies, Durham, N.C.) as described (Ma et al., supra). Each well of a 96-well plate was washed 3 times with PBS (200 μL/wash), leaving 50 μL PBS. Test compounds (0.5 μL) were added to each well at […]. After 10 min, 96-well plates were transferred to a plate reader for fluorescence assay. Each well was assayed individually for TMEM16A-mediated I^− influx by recording fluorescence continuously (400 ms per point) for 2 s (baseline), then 50 μL of a 140 mM I^− solution was added. The initial rate of I^− influx was computed from fluorescence data by non-linear regression.
As diagrammed in FIG. 1A, test compounds at 25 μM final concentration were added 10 min prior to I^− addition. The 10 min incubation was chosen to allow for compound transport into cytoplasm and to minimize false positives from compounds that elevate cytoplasmic Ca^2+ transiently. Fluorescence from individual wells of 96-well plates was measured just prior to and for 6 s after I^− addition for computation of initial I^− influx rate.

O=C(Nc1ccc(Br)cc1)c1cccc(-n2cnnn2)c1 [Fact, N-(4-bromophenyl)-3-(1H-tetrazol-1-yl)benzamide]
effect on CFTR conductance (CFTR): Neither Eact nor Fact affected | EC50 (TMEM16A): 37 µM | TMEM16A conductance, F class SAR (TMEM16A; synthesized F class analogs): increased TMEM16A conductance
